For this test, the system named is production of TNF-α in ex-vivo stimulated peripheral human monocytes. The test can be described thus: TNF-α production in ex-vivo stimulated peripheral monocytes of former smokers under additional therapy. The test is classed as cell-based. The note with it: long-term additional therapy with 1,8-cineol plus ICS-based therapy. How it is done: From these patients, monocytes were obtained during ongoing therapy with ICS and incubated in vitro with a topical glucocorticoid in a dose-dependent manner.

Each structure is given as a SMILES string.

Take `CC12CCC(CC1)C(C)(C)O2` [1,8-cineol, 1,3,3-trimethyl-2-oxabicyclo-[2.2.2]-octane]: the “production of TNF-α compared to normal monocytes of nonsmokers” value is given as “inhibition of the production of TNF-α”.

Values taken from patent US11123323B2, “Monoterpenes for treating respiratory disorders, in particular bronchopulmonary disorders” (Maria Clemetine Martin Klosterfrau Vertriebsqesellschaft MBH, priority 2008, dated 2021).
